{"source": "patent US9040501B2", "about": "“Compositions and methods for treating cancer” (Eisai Inc., priority 2009, dated 2015)", "key": {"[1]": {"test": "Pharmacokinetics in mice after IV and PO administrations", "assay_type": "in vivo, male BALB-c mice", "details": "for concentration at 0.167 hr / concentration at 0.5 hr / concentration at 1 hr / concentration at 2 hr / concentration at 4 hr / concentration at 6 hr / concentration at 8 hr / concentration at 24 hr: read-out: Plasma concentrations", "description": "[…]. All doses were prepared in phosphate buffered saline (PBS) and were administered at a volume of 5 mL/kg. Five mice per group were used in these studies. Blood samples were taken serially from the tail vein of each mouse at predetermined timepoints. Blood samples from all mice in each group were pooled together prior to processing for plasma. The pooled blood samples were spun down within 30-60 minutes after withdrawal and the plasma was harvested and frozen for assay. After preparation and extraction the samples were assayed by LC/MS/MS."}, "[2]": {"molecular_target": "cytidine deaminase (CDA) (Homo sapiens (Human), UniProt P32320)", "sequence (P32320 whole entry)": "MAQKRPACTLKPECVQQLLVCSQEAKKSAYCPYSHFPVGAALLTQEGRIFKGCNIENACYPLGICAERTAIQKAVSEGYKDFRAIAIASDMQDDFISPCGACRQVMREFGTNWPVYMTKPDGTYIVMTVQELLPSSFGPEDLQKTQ", "test": "Effect of ER-876437 on the half-life of cytarabine in the presence of CDA in Tris-HCl buffer at 37° C."}, "[3]": {"details": "male, BALB-c, mouse, plasma, 10 mg/kg IV"}, "[4]": {"details": "male, BALB-c, mouse, plasma, 10 mg/kg PO"}}, "note": "Like-named read-outs stand apart in the source and are kept apart here."}
{"smiles": "O=C1NCC=CCN1[C@@H]1O[C@H](CO)[C@@H](O)C1(F)F", "note": "[ER-876437, 1-((2R,4R,5R)-3,3-difluoro-4-hydroxy-5-(hydroxymethyl)tetrahydrofuran-2-yl)-3,4-dihydro-1H-1,3-diazepin-2(7H)-one]", "values": [{"measurement": "t1/2 after PO administration relative to IV administration", "setting": "[1]; 10 mg/kg", "result": "roughly 2.5 fold"}, {"measurement": "AUC0-∞", "setting": "[1]; 10 mg/kg IV", "result": 13071, "unit": "ng·h/mL"}, {"measurement": "AUC0-∞/D", "setting": "[1]; 10 mg/kg IV", "result": 1307, "unit": "ng · hr/mL/D"}, {"measurement": "AUCExtrap", "setting": "[1]; 10 mg/kg IV", "result": 1.4, "unit": "%"}, {"measurement": "CL", "setting": "[1]; 10 mg/kg IV", "result": 12.8, "unit": "mL/min/kg"}, {"measurement": "dose-normalized exposures (AUC0-∞)", "setting": "[1]; 10 mg/kg IV", "result": 1310, "unit": "ng·h/mL per mg/kg"}, {"measurement": "t1/2", "setting": "[1]; 10 mg/kg IV", "result": 6.1, "unit": "h"}, {"measurement": "AUC0-∞", "setting": "[1]; 10 mg/kg PO", "result": 9499, "unit": "ng·h/mL"}, {"measurement": "AUC0-∞/D", "setting": "[1]; 10 mg/kg PO", "result": 950, "unit": "ng · hr/mL/D"}, {"measurement": "AUC(0-t)", "setting": "[1]; 10 mg/kg PO", "result": 8579, "unit": "ng·h/mL"}, {"measurement": "AUCExtrap", "setting": "[1]; 10 mg/kg PO", "result": 9.7, "unit": "%"}, {"measurement": "t1/2", "setting": "[1]; 10 mg/kg PO", "result": 16.3, "unit": "h"}, {"measurement": "AUC(0-inf)", "setting": "[1]; [3]", "result": 13100, "unit": "ng·h/mL"}, {"measurement": "clearance", "setting": "[1]; [3]", "result": 12.8, "unit": "mL/min/kg"}, {"measurement": "half-life", "setting": "[1]; [3]", "result": 6.1, "unit": "h"}, {"measurement": "concentration at 0.167 hr", "setting": "[1]; [3]", "result": 11800, "unit": "ng/mL"}, {"measurement": "concentration at 0.5 hr", "setting": "[1]; [3]", "result": 7690, "unit": "ng/mL"}, {"measurement": "concentration at 1 hr", "setting": "[1]; [3]", "result": 3470, "unit": "ng/mL"}, {"measurement": "concentration at 2 hr", "setting": "[1]; [3]", "result": 1450, "unit": "ng/mL"}, {"measurement": "concentration at 4 hr", "setting": "[1]; [3]", "result": 214, "unit": "ng/mL"}, {"measurement": "concentration at 6 hr", "setting": "[1]; [3]", "result": 184, "unit": "ng/mL"}, {"measurement": "concentration at 8 hr", "setting": "[1]; [3]", "result": 64, "unit": "ng/mL"}, {"measurement": "concentration at 24 hr", "setting": "[1]; [3]", "result": 20, "unit": "ng/mL"}, {"measurement": "AUC(0-t)", "setting": "[1]; male, BALB-c, mouse, plasma, 10 mg/kg IV, read-out: AUC0-t", "result": 12900, "unit": "ng·h/mL"}, {"measurement": "Vd", "setting": "[1]; male, BALB-c, mouse, plasma, 10 mg/kg IV, read-out: Vss", "result": 1.64, "unit": "L/kg"}, {"measurement": "AUC(0-inf)", "setting": "[1]; [4]", "result": 9500, "unit": "ng·h/mL"}, {"measurement": "Cmax", "setting": "[1]; [4]", "result": 8600, "unit": "ng/mL"}, {"measurement": "half-life", "setting": "[1]; [4]", "result": 16.3, "unit": "h"}, {"measurement": "bioavailability", "setting": "[1]; male, BALB-c, mouse, plasma, 10 mg/kg PO vs IV, calculated based on AUC0-t, read-out: F (bioavailability)", "result": 66.5, "unit": "%"}, {"measurement": "concentration at 0.167 hr", "setting": "[1]; [4]", "result": 8600, "unit": "ng/mL"}, {"measurement": "concentration at 0.5 hr", "setting": "[1]; [4]", "result": 3720, "unit": "ng/mL"}, {"measurement": "concentration at 1 hr", "setting": "[1]; [4]", "result": 4180, "unit": "ng/mL"}, {"measurement": "concentration at 2 hr", "setting": "[1]; [4]", "result": 1140, "unit": "ng/mL"}, {"measurement": "concentration at 4 hr", "setting": "[1]; [4]", "result": 146, "unit": "ng/mL"}, {"measurement": "concentration at 6 hr", "setting": "[1]; [4]", "result": 36, "unit": "ng/mL"}, {"measurement": "concentration at 8 hr", "setting": "[1]; [4]", "result": 103, "unit": "ng/mL"}, {"measurement": "concentration at 24 hr", "setting": "[1]; [4]", "result": 39, "unit": "ng/mL"}, {"measurement": "AUC(0-t)", "setting": "[1]; male, BALB-c, mouse, plasma, 10 mg/kg PO, read-out: AUC0-t", "result": 8580, "unit": "ng·h/mL"}, {"measurement": "cytarabine remaining", "setting": "[2]; CDA plus ER-876437 in the incubation mixture, after 52 h", "result": "greater than 95%"}, {"measurement": "inhibition of the effect of CDA on T1/2 of cytarabine", "setting": "[2]; Tris-HCl buffer at 37° C.", "result": "nearly completely inhibited"}, {"measurement": "levels of ER-876437", "setting": "[2]; after 52 hours of exposure to CDA with cytarabine", "result": "not affected"}]}
